This is an account of results in PMC8348200, “Selective Antifungal Activity and Fungal Biofilm Inhibition of Tryptophan Center Symmetrical Short Peptide” (International Journal of Molecular Sciences, 2021).

The subject of test [1] is C. albicans Isolated from Alveolar Fluid. Nature of the test: microbe, parasite or virus in culture. Format: cell-based, Candida albicans. The conditions noted are these: RPMI 1640 buffered with MOPS, 28 °C 48 h, 0.5-128 μM, read-out: MICs, C. albicans Isolated from Alveolar Fluid. The procedure:
(§1) The peptide antimicrobial activity was determined according to the Clinical and Laboratory Standards Institute method, with modifications. Bacteria concentration was measured by ultraviolet spectrophotometer, and fungi concentration was confirmed by McMillan’s turbidimetric method, which compared the fungi solution with the standard McFarland tube in front of the horizontal line on the paper with the naked eye. Because the light has different refract in different liquids. The standard solution is composed of sulfuric acid and barium chloride, which is equivalent to 1*10^8 CFU fungi. After cultivation, the growth of fungi and bacteria was measured by TECAN automatic enzyme label instrument. Briefly, bacterial cells were cultured in MHB until logarithmic phase, yeast colonies cultured in Yeast Peptone Dextrose Agar (YPDA) were picked and diluted in RPMI 1640 growth medium buffered with morpholine propane sulfonic acid (MOPS), and then 50 μL of bacterial or fungi cell solution (0.5–1 × 10^4 CFU/mL) was added to each well of sterile 96-well plates. Each well contained 50 μL of AMPs dissolved in BSA; the final concentrations of the peptides ranged from 0.5 to 128 μM. The lowest concentration of peptide with no microbial growth being observed were measured after incubation at 37 °C for 24 h for bacteria or at 28 °C for 48 h for fungi. Broth with microbial cells and un-inoculated broth were used as positive control and negative controls, respectively.

Another test concerns C. albicans SP3903. Nature of the test: microbe, parasite or virus in culture. Conditions: clinical isolate, RPMI 1640 buffered with MOPS, 28 °C 48 h, 0.5-128 μM, read-out: MICs, C. albicans SP3903. The class given is cell-based, Candida albicans. The method, then:
as §1

The subject of another test is C. albicans SP3937. Nature of the test: microbe, parasite or virus in culture. The class given is cell-based, Candida albicans. The conditions noted are these: clinical isolate, RPMI 1640 buffered with MOPS, 28 °C 48 h, 0.5-128 μM, read-out: MICs, C. albicans SP3937. The procedure: as §1
The subject of test [2] is C. albicans cgmcc 2.2086. Nature of the test: microbe, parasite or virus in culture. Format: cell-based, Candida albicans. Conditions: RPMI 1640 buffered with MOPS, 28 °C 48 h, 0.5-128 μM, read-out: MICs, C. albicans cgmcc 2.2086. The method, then: as §1
Test [3] has as its system C. albicans cgmcc 2.2086. Nature of the test: Propidium iodide influx, flow cytometry. Conditions: 1× MIC, 1 h at 28 °C; 10 μg/mL PI. The class given is cell-based, Candida albicans. The method, then:
Cell membrane permeabilization after treatment with P19, melittin, fluconazole or amphotericin B were also detected via the propidium iodide influx assay. In brief, C. albicans cgmcc 2.2086 cells (1 × 10^4 cells/mL) were treated with antifungal agents for 1 h at 28 °C, then washed, harvested by centrifugation and resuspended in PBS. The cells were treated with 10 μg/mL propidium iodide and incubated for 30 min at room temperature. The uptake of propidium iodide into these cells was analyzed with a FACS flow cytometer (Becton–Dickinson, San Jose, CA) with a laser excitation wavelength of 488 nm. The flow cytometry results can be interpreted as follows. Region Q1 was identified as a living cell region; it represents cells treated with PBS. Q2 region represents the dead cell region. Ignored the surrounding adherent scattered points, the most concentrated scattered points represented the largest cell density. The areas where cells were concentrated represent the state of cells as live or die.
For orientation: Flow cytometry measures light scatter and fluorescence of single cells or particles in a stream.

A further test deals with E. coli 25922. Nature of the test: microbe, parasite or virus in culture. The class given is cell-based, Escherichia coli. The conditions noted are these: Escherichia coli, 25922; MHB, 37 °C 24 h, peptides 0.5-128 μM; lowest concentration inhibiting 95% of growth; three independent experiments; read-out: MICs, E. coli 25922. The procedure: as §1
A further test has as its system E. coli UB1005. Nature of the test: microbe, parasite or virus in culture. The conditions noted are these: Escherichia coli, UB1005; MHB, 37 °C 24 h, peptides 0.5-128 μM; lowest concentration inhibiting 95% of growth; three independent experiments; read-out: MICs, E. coli UB1005. The class given is cell-based, Escherichia coli. The method, then: as §1
Test [4] has as its system C. albicans cgmcc 2.2086. Nature of the test: Resistance development by sequential passaging at sub-MIC. Format: cell-based, Candida albicans. Conditions: 20-passage repeating treatment at sub-lethal concentration.
Protocol: Resistance development of C. albicans cgmcc 2.2086 against antifungals was explored using a sequential passaging method, described in our previous study [22]. Briefly, MIC testing was first conducted for P19, fluconazole and amphotericin B. After a 24 h incubation, fungal cells growing in a well with a half-MIC level were harvested and diluted to 0.5–1 × 10^4 CFU/mL using RPMI 1640 growth medium buffered with morpholine propane sulfonic acid (MOPS). The inoculum was subjected to subsequent passage MIC testing, and the process was repeated for 30 days. The fold change in MIC was plotted against the number of passages.
Test [5] relates to C. albicans cgmcc 2.2086. Nature of the test: Cytoplasmic membrane depolarization assay (DiSC3-5). Conditions: agents at their MICs, 1 h; 0.4 μM DiSC3-5. The class given is cell-based, Candida albicans. The method, then: To analyze membrane disturbances due to P19, melittin, fluconazole or amphotericin B-treated, cells (1 × 10^4 cells/mL) of C. albicans cgmcc 2.2086 were incubated with antimicrobial agents at their respective MICs for 1 h at room temperature; the cells were then harvested by centrifugation and resuspended in 1 mL PBS (pH 7.4). […] Changes in fluorescence were measured from 0 to 800 s with a F-4500 fluorescence spectrophotometer (Hitachi, Japan) at an excitation wavelength of 622 nm and an emission wavelength of 670 nm.

SMILES strings stand for the structures. In brackets after ≈: the same amount, converted by molar mass. Like-named read-outs stand apart in the source and are kept apart here.

As to `CC[C@H](C)[C@H](NC(=O)CN)C(=O)NCC(=O)N[C@@H](C)C(=O)N[C@H](C(=O)N[C@@H](CC(C)C)C(=O)N[C@@H](CCCCN)C(=O)N[C@H](C(=O)N[C@@H](CC(C)C)C(=O)N[C@H](C(=O)N[C@H](C(=O)NCC(=O)N[C@@H](CC(C)C)C(=O)N1CCC[C@H]1C(=O)N[C@@H](C)C(=O)N[C@@H](CC(C)C)C(=O)N[C@H](C(=O)N[C@@H](CO)C(=O)N[C@@H](Cc1c[nH]c2ccccc12)C(=O)N[C@H](C(=O)N[C@@H](CCCCN)C(=O)N[C@@H](CCCNC(=N)N)C(=O)N[C@@H](CCCCN)C(=O)N[C@@H](CCCNC(=N)N)C(=O)N[C@@H](CCC(N)=O)C(=O)N[C@@H](CCC(N)=O)C(N)=O)[C@@H](C)CC)[C@@H](C)CC)[C@@H](C)O)[C@@H](C)O)C(C)C)C(C)C` [Melittin, reference compound], the MIC in [1] is 4 µM (≈ 11.4 µg/mL); in the test with C. albicans SP3903, 2 µM (≈ 5.69 µg/mL); in the test with C. albicans SP3937, 4 µM (≈ 11.4 µg/mL); with C. albicans cgmcc 2.2086 [2], 4 µM (≈ 11.4 µg/mL). Moreover, in the test on C. albicans cgmcc 2.2086 [3], the “increase of PI fluorescent signal” value is reported as “more than 90%”.

On to `C[C@@H]1[C@H](O)[C@@H](C)/C=C/C=C/C=C/C=C/C=C/C=C/C=C/[C@H](O[C@@H]2O[C@H](C)[C@@H](O)[C@H](N)[C@@H]2O)C[C@@H]2O[C@](O)(C[C@@H](O)C[C@@H](O)[C@H](O)CC[C@@H](O)C[C@@H](O)CC(=O)O[C@H]1C)C[C@H](O)[C@H]2C(=O)O` [Amphotericin B, reference compound], for which the MIC in the test on E. coli 25922 was over 128 µM; in the test on E. coli UB1005, over 128 µM; in [1] (Candida albicans), 1 µM (≈ 0.924 µg/mL); in the test with C. albicans SP3903 (Candida albicans, SP3903), 0.5 µM (≈ 0.462 µg/mL); in the test on C. albicans SP3937 (Candida albicans, SP3937), 0.5 µM (≈ 0.462 µg/mL); in the test on C. albicans cgmcc 2.2086 [2] (Candida albicans, CGMCC2), 1 µM (≈ 0.924 µg/mL). In addition, the “increase in MIC value compared with the first passage” value in the test with C. albicans cgmcc 2.2086 [4] came to 1024 fold. Moreover, the “membrane depolarization (DiSC3-5 fluorescence intensity)” value in the test on C. albicans cgmcc 2.2086 [5] is “minor change of membrane depolarization”.

Take `OC(Cn1cncn1)(Cn1cncn1)c1ccc(F)cc1F` [Fluconazole, reference compound]: the MIC in the test with E. coli 25922 is over 128 µM; in the test on E. coli UB1005 it was over 128 µM; in test [1] (Candida albicans), 2 µM (≈ 0.613 µg/mL); in the test with C. albicans SP3903 (Candida albicans, SP3903), 32 µM (≈ 9.8 µg/mL); in the test with C. albicans SP3937 (Candida albicans, SP3937), 16 µM (≈ 4.9 µg/mL); with C. albicans cgmcc 2.2086 [2] (Candida albicans, CGMCC2), 1 µM (≈ 0.306 µg/mL). The “increase in MIC value compared with the first passage” value in the test on C. albicans cgmcc 2.2086 [4] was found to be 1024 fold. For the same molecule, the “membrane depolarization (DiSC3-5 fluorescence intensity)” value in the test with C. albicans cgmcc 2.2086 [5] is given as “minor change of membrane depolarization”.
